Experimental data as given in US20200038513A1, “MODULATORS OF FAK PROTEOLYSIS AND ASSOCIATED METHODS OF USE” (ARVINAS OPERATIONS, INC., priority 2018, published 2020).

System: MDA-MB-231 cells
Assay: Transwell invasion assay
Format: cell-based, human
Conditions: 100 nM, 24 hours
Protocol: On the first day, 0.2× Basement Membrane Extract (BME) working solution was prepared by diluting 5×BME stock solution in 1× Travigen Inc. coating buffer. Briefly, 100 μL of 10× coating buffer was diluted in 900 μL of sterile water to make 1× coating buffer. Then 960 μL of 1× coating buffer was mixed with 40 μL of 5×BME to make working 0.2×BME solution. Corning Transwell permeable inserts (Costar Transwell chambers, Corning) were placed on a 24-well plate and 100 μL of 0.2×BME solution was added to each Transwell insert and incubated for 16 hours. Following day, MDA-MB-231 cells were trypsinized and cells were suspended in serum free medium. Approximately 100 μL from cell suspension (˜3×10^5 cells) was added to each Transwell insert followed by another 100 μL of exemplary compound or control containing serum free RPMI medium. The lower chamber was filled with 10% FBS containing RPMI medium and the whole setup was incubated at 37° C. 1-5% CO2 for 24 hours. After 24 hours, cell culture medium was removed from both lower and upper chambers and Transwell inserts were washed three times with PBS. […] Images were then analyzed by ImageJ software and number of cells on the bottom side of the membrane were counted and presented as a bar graph using Prism 7.0 (GraphPad). Differences among groups were analyzed by Welch's t-test and considered significant when P<0.05. […]

CNC(=O)c1ccc(Nc2ncc(C(F)(F)F)c(NCc3nccnc3N(C)S(C)(=O)=O)n2)cc1 [Defactinib, defactinib, reference compound]
effect on cell invasion (in words): no significant effect
